{"source": "patent US9738634B2", "about": "“Heterocyclic amide compound and herbicide” (SYNGENTA PARTICIPATIONS AG, priority 2013, dated 2017)", "type_in_all_cases": "in vivo", "key": {"barnyard grass [1]": {"system": "barnyard grass", "assay": "Test Example 1: weedkilling efficacy, preemergent weed treatment in the submerged state; A: barnyard grass", "settings": "treatment dosage 252 g/ha", "outline": "(§1)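 Submerged pre-emergence treatment, water-surface application of compound emulsion at g/ha dosages; 4 cm flooded alluvial soil, weeds sown and 2.5-leaf rice transplanted same day. Rated after 3 weeks, greenhouse.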"}, "oval-leafed pondweed [2]": {"system": "oval-leafed pondweed", "assay": "Test Example 1: weedkilling efficacy, preemergent weed treatment in the submerged state; C: oval-leafed pondweed", "settings": "treatment dosage 252 g/ha", "outline": "as §1"}, "Italian ryegrass [3]": {"system": "Italian ryegrass", "assay": "Test Example 3: weedkilling efficacy through soil treatment; I: Italian ryegrass", "settings": "treatment dosage 315 g/ha", "outline": "(§2)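 Crop and weed responses were judged three weeks after a uniform surface spray of the water-diluted emulsion at the given g/ha rate. Seeds sat beneath about 1.5 cm of sterilized diluvial soil, and boxes stood in a greenhouse at 25 to 30° C.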"}, "chickweed [4]": {"system": "chickweed", "assay": "Test Example 3: weedkilling efficacy through soil treatment; N: chickweed", "settings": "treatment dosage 315 g/ha", "outline": "as §2"}, "directly sown rice [5]": {"system": "directly sown rice", "assay": "Test Example 3: soil treatment, effect on crop; b: directly sown rice", "settings": "treatment dosage 315 g/ha", "outline": "as §2"}, "Indian mallow [6]": {"system": "Indian mallow", "assay": "Test Example 4: weedkilling efficacy by foliar treatment; K: Indian mallow", "settings": "treatment dosage 315 g/ha", "outline": "(§3)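 Seeds are spot-sown into sterilized diluvial soil and covered with about 1.5 cm of soil. After 14 days' greenhouse growth at 25 to 30° C, plants are sprayed on stems and leaves with diluted emulsion at the stated g/ha rate, then scored at 3 weeks.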"}, "fig-leafed goosefoot [7]": {"system": "fig-leafed goosefoot", "assay": "Test Example 3: weedkilling efficacy through soil treatment; M: fig-leafed goosefoot", "settings": "treatment dosage 315 g/ha", "outline": "as §2"}, "Italian ryegrass [8]": {"system": "Italian ryegrass", "assay": "Test Example 4: weedkilling efficacy by foliar treatment; I: Italian ryegrass", "settings": "treatment dosage 315 g/ha", "outline": "as §3"}, "bulrush [9]": {"system": "bulrush", "assay": "Test Example 2: weedkilling efficacy, growth period weed treatment in the submerged state; B: bulrush", "settings": "treatment dosage 252 g/ha", "outline": "(§4)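 Seedlings at 1-2 leaves in 4 cm-deep submerged alluvial soil received emulsion formulations on the water surface, dosed per hectare; effects were judged 3 weeks on.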"}, "green foxtail [10]": {"system": "green foxtail", "assay": "Test Example 3: weedkilling efficacy through soil treatment; E: green foxtail", "settings": "treatment dosage 315 g/ha", "outline": "as §2"}, "black-grass [11]": {"system": "black-grass", "assay": "Test Example 4: weedkilling efficacy by foliar treatment; H: black-grass", "settings": "treatment dosage 315 g/ha", "outline": "as §3"}, "bulrush [12]": {"system": "bulrush", "assay": "Test Example 1: weedkilling efficacy, preemergent weed treatment in the submerged state; B: bulrush", "settings": "treatment dosage 252 g/ha", "outline": "as §1"}, "chickweed [13]": {"system": "chickweed", "assay": "Test Example 4: weedkilling efficacy by foliar treatment; N: chickweed", "settings": "treatment dosage 315 g/ha", "outline": "as §3"}, "transplanted rice": {"system": "transplanted rice", "assay": "Test Example 1: preemergent weed treatment in the submerged state, effect on crop; a: transplanted rice", "settings": "treatment dosage 252 g/ha", "outline": "as §1"}, "crabgrass [14]": {"system": "crabgrass", "assay": "Test Example 3: weedkilling efficacy through soil treatment; D: crabgrass", "settings": "treatment dosage 315 g/ha", "outline": "as §2"}, "barnyard grass [15]": {"system": "barnyard grass", "assay": "Test Example 2: weedkilling efficacy, growth period weed treatment in the submerged state; A: barnyard grass", "settings": "treatment dosage 252 g/ha", "outline": "as §4"}, "black-grass [16]": {"system": "black-grass", "assay": "Test Example 3: weedkilling efficacy through soil treatment; H: black-grass", "settings": "treatment dosage 315 g/ha", "outline": "as §2"}, "green foxtail [17]": {"system": "green foxtail", "assay": "Test Example 4: weedkilling efficacy by foliar treatment; E: green foxtail", "settings": "treatment dosage 315 g/ha", "outline": "as §3"}, "wheat [18]": {"system": "wheat", "assay": "Test Example 3: soil treatment, effect on crop; e: wheat", "settings": "treatment dosage 315 g/ha", "outline": "as §2"}, "redroot pigweed [19]": {"system": "redroot pigweed", "assay": "Test Example 3: weedkilling efficacy through soil treatment; L: redroot pigweed", "settings": "treatment dosage 315 g/ha", "outline": "as §2"}, "oval-leafed pondweed [20]": {"system": "oval-leafed pondweed", "assay": "Test Example 2: weedkilling efficacy, growth period weed treatment in the submerged state; C: oval-leafed pondweed", "settings": "treatment dosage 252 g/ha", "outline": "as §4"}, "Indian mallow [21]": {"system": "Indian mallow", "assay": "Test Example 3: weedkilling efficacy through soil treatment; K: Indian mallow", "settings": "treatment dosage 315 g/ha", "outline": "as §2"}, "beet [22]": {"system": "beet", "assay": "Test Example 3: soil treatment, effect on crop; f: beet", "settings": "treatment dosage 315 g/ha", "outline": "as §2"}, "soybean [23]": {"system": "soybean", "assay": "Test Example 3: soil treatment, effect on crop; d: soybean", "settings": "treatment dosage 315 g/ha", "outline": "as §2"}, "beet [24]": {"system": "beet", "assay": "Test Example 4: foliar treatment, effect on crop; f: beet", "settings": "treatment dosage 315 g/ha", "outline": "as §3"}, "corn [25]": {"system": "corn", "assay": "Test Example 3: soil treatment, effect on crop; c: corn", "settings": "treatment dosage 315 g/ha", "outline": "as §2"}, "corn [26]": {"system": "corn", "assay": "Test Example 4: foliar treatment, effect on crop; c: corn", "settings": "treatment dosage 315 g/ha", "outline": "as §3"}, "crabgrass [27]": {"system": "crabgrass", "assay": "Test Example 4: weedkilling efficacy by foliar treatment; D: crabgrass", "settings": "treatment dosage 315 g/ha", "outline": "as §3"}, "birds-eye speedwell [28]": {"system": "birds-eye speedwell", "assay": "Test Example 4: weedkilling efficacy by foliar treatment; p: birds-eye speedwell", "settings": "treatment dosage 315 g/ha", "outline": "as §3"}, "directly sown rice [29]": {"system": "directly sown rice", "assay": "Test Example 4: foliar treatment, effect on crop; b: directly sown rice", "settings": "treatment dosage 315 g/ha", "outline": "as §3"}, "fig-leafed goosefoot [30]": {"system": "fig-leafed goosefoot", "assay": "Test Example 4: weedkilling efficacy by foliar treatment; M: fig-leafed goosefoot", "settings": "treatment dosage 315 g/ha", "outline": "as §3"}, "catchweed": {"system": "catchweed", "assay": "Test Example 4: weedkilling efficacy by foliar treatment; O: catchweed", "settings": "treatment dosage 315 g/ha", "outline": "as §3"}, "birds-eye speedwell [31]": {"system": "birds-eye speedwell", "assay": "Test Example 3: weedkilling efficacy through soil treatment; p: birds-eye speedwell", "settings": "treatment dosage 315 g/ha", "outline": "as §2"}, "wheat [32]": {"system": "wheat", "assay": "Test Example 4: foliar treatment, effect on crop; e: wheat", "settings": "treatment dosage 315 g/ha", "outline": "as §3"}, "wild oat": {"system": "wild oat", "assay": "Test Example 3: weedkilling efficacy through soil treatment; G: wild oat", "settings": "treatment dosage 315 g/ha", "outline": "as §2"}, "redroot pigweed [33]": {"system": "redroot pigweed", "assay": "Test Example 4: weedkilling efficacy by foliar treatment; L: redroot pigweed", "settings": "treatment dosage 315 g/ha", "outline": "as §3"}, "soybean [34]": {"system": "soybean", "assay": "Test Example 4: foliar treatment, effect on crop; d: soybean", "settings": "treatment dosage 315 g/ha", "outline": "as §3"}}}
{"smiles": "CC1=C(c2ccsc2)C(=O)N(C(C)(C)C(=O)Nc2cccc(F)n2)CO1", "note": "[B-2-04]", "values": [{"measurement": "A (barnyard grass) weedkilling efficacy grade", "setting": "barnyard grass [1]", "value": "5 (weed kill ratio 90% or more, (practically complete withering))"}, {"measurement": "C (oval-leafed pondweed) weedkilling efficacy grade", "setting": "oval-leafed pondweed [2]", "value": "5 (weed kill ratio 90% or more, (practically complete withering))"}, {"measurement": "I (Italian ryegrass) weedkilling efficacy grade", "setting": "Italian ryegrass [3]", "value": "5 (weed kill ratio 90% or more, (practically complete withering))"}, {"measurement": "N (chickweed) weedkilling efficacy grade", "setting": "chickweed [4]", "value": "5 (weed kill ratio 90% or more, (practically complete withering))"}, {"measurement": "b (directly sown rice) effect on crop grade", "setting": "directly sown rice [5]", "value": "5 (weed kill ratio 90% or more, (practically complete withering))"}, {"measurement": "K (Indian mallow) weedkilling efficacy grade", "setting": "Indian mallow [6]", "value": "5 (weed kill ratio 90% or more, (practically complete withering))"}, {"measurement": "M (fig-leafed goosefoot) weedkilling efficacy grade", "setting": "fig-leafed goosefoot [7]", "value": "5 (weed kill ratio 90% or more, (practically complete withering))"}, {"measurement": "I (Italian ryegrass) weedkilling efficacy grade", "setting": "Italian ryegrass [8]", "value": "5 (weed kill ratio 90% or more, (practically complete withering))"}, {"measurement": "B (bulrush) weedkilling efficacy grade", "setting": "bulrush [9]", "value": "5 (weed kill ratio 90% or more, (practically complete withering))"}, {"measurement": "E (green foxtail) weedkilling efficacy grade", "setting": "green foxtail [10]", "value": "5 (weed kill ratio 90% or more, (practically complete withering))"}, {"measurement": "H (black-grass) weedkilling efficacy grade", "setting": "black-grass [11]", "value": "5 (weed kill ratio 90% or more, (practically complete withering))"}, {"measurement": "B (bulrush) weedkilling efficacy grade", "setting": "bulrush [12]", "value": "5 (weed kill ratio 90% or more, (practically complete withering))"}, {"measurement": "N (chickweed) weedkilling efficacy grade", "setting": "chickweed [13]", "value": "4 (weed kill ratio 70% or more, less than 90%)"}, {"measurement": "a (transplanted rice) effect on crop grade", "setting": "transplanted rice", "value": "3 (weed kill ratio 40% or more, less than 70%)"}, {"measurement": "D (crabgrass) weedkilling efficacy grade", "setting": "crabgrass [14]", "value": "5 (weed kill ratio 90% or more, (practically complete withering))"}, {"measurement": "A (barnyard grass) weedkilling efficacy grade", "setting": "barnyard grass [15]", "value": "5 (weed kill ratio 90% or more, (practically complete withering))"}, {"measurement": "H (black-grass) weedkilling efficacy grade", "setting": "black-grass [16]", "value": "5 (weed kill ratio 90% or more, (practically complete withering))"}, {"measurement": "E (green foxtail) weedkilling efficacy grade", "setting": "green foxtail [17]", "value": "5 (weed kill ratio 90% or more, (practically complete withering))"}, {"measurement": "e (wheat) effect on crop grade", "setting": "wheat [18]", "value": "5 (weed kill ratio 90% or more, (practically complete withering))"}, {"measurement": "L (redroot pigweed) weedkilling efficacy grade", "setting": "redroot pigweed [19]", "value": "4 (weed kill ratio 70% or more, less than 90%)"}, {"measurement": "C (oval-leafed pondweed) weedkilling efficacy grade", "setting": "oval-leafed pondweed [20]", "value": "5 (weed kill ratio 90% or more, (practically complete withering))"}, {"measurement": "K (Indian mallow) weedkilling efficacy grade", "setting": "Indian mallow [21]", "value": "4 (weed kill ratio 70% or more, less than 90%)"}, {"measurement": "f (beet) effect on crop grade", "setting": "beet [22]", "value": "5 (weed kill ratio 90% or more, (practically complete withering))"}, {"measurement": "d (soybean) effect on crop grade", "setting": "soybean [23]", "value": "0 (weed kill ratio 5% or less (practically no effect))"}, {"measurement": "f (beet) effect on crop grade", "setting": "beet [24]", "value": "5 (weed kill ratio 90% or more, (practically complete withering))"}, {"measurement": "c (corn) effect on crop grade", "setting": "corn [25]", "value": "1 (weed kill ratio 5% or more, less than 20%)"}, {"measurement": "c (corn) effect on crop grade", "setting": "corn [26]", "value": "3 (weed kill ratio 40% or more, less than 70%)"}, {"measurement": "D (crabgrass) weedkilling efficacy grade", "setting": "crabgrass [27]", "value": "5 (weed kill ratio 90% or more, (practically complete withering))"}, {"measurement": "P (birds-eye speedwell) weedkilling efficacy grade", "setting": "birds-eye speedwell [28]", "value": "5 (weed kill ratio 90% or more, (practically complete withering))"}, {"measurement": "b (directly sown rice) effect on crop grade", "setting": "directly sown rice [29]", "value": "5 (weed kill ratio 90% or more, (practically complete withering))"}, {"measurement": "M (fig-leafed goosefoot) weedkilling efficacy grade", "setting": "fig-leafed goosefoot [30]", "value": "5 (weed kill ratio 90% or more, (practically complete withering))"}, {"measurement": "O (catchweed) weedkilling efficacy grade", "setting": "catchweed", "value": "4 (weed kill ratio 70% or more, less than 90%)"}, {"measurement": "P (birds-eye speedwell) weedkilling efficacy grade", "setting": "birds-eye speedwell [31]", "value": "5 (weed kill ratio 90% or more, (practically complete withering))"}, {"measurement": "e (wheat) effect on crop grade", "setting": "wheat [32]", "value": "5 (weed kill ratio 90% or more, (practically complete withering))"}, {"measurement": "G (wild oat) weedkilling efficacy grade", "setting": "wild oat", "value": "5 (weed kill ratio 90% or more, (practically complete withering))"}, {"measurement": "L (redroot pigweed) weedkilling efficacy grade", "setting": "redroot pigweed [33]", "value": "5 (weed kill ratio 90% or more, (practically complete withering))"}, {"measurement": "d (soybean) effect on crop grade", "setting": "soybean [34]", "value": "4 (weed kill ratio 70% or more, less than 90%)"}]}
